Measurements taken from the supplement of paper PMC10627819.

Assays:
B. subtilis 168 [1] = test: fitness (endpoint OD595 vs no drug) (fraction); higher = more growth
Outline: (§1)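 Growth medium was TSB, LB Lennox or CY, and plates were kept at 37 °C. Inoculation was at OD595 0.01 in 384-well plates, at 30 µl per well or 55 µl for S. pneumoniae. OD595 was monitored every 30 min for 14 h and background-subtracted using the first reading. Fitness is the optical density on entering stationary phase divided by the robust mean of no-drug controls, with values capped at 1.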

S. aureus DSM 20231 [2] = test: as above
Outline: as §1

S. pneumoniae D39V [3] = test: as above
Outline: as §1

B. subtilis 168 [4] = test: Bliss interaction score (quartile over a dose matrix) (fitness difference); higher = more antagonism (negative = synergy)
Outline: (§2)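 Each OD595 reading at entry into stationary phase was scaled to the robust mean of the untreated wells on its plate, with a ceiling of 1. These ratios define fitness, and single-drug fitness was inferred from combinations. The Bliss score compares observed fitness with the product-based expectation and is reported as quartiles across all replicate types, technical, biological and donor/recipient.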

S. aureus DSM 20231 [5] = test: as above
Outline: as §2

S. aureus Newman = test: as above
Outline: as §2

S. pneumoniae D39V [6] = test: as above
Outline: as §2
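For Bliss interaction score (quartile over a dose matrix) in this document: first quartile when negative (synergy) and third quartile when positive (antagonism).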
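For fitness (endpoint OD595 vs no drug) in this document: OD595 on entry to stationary phase over no-drug wells; at most 1.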

CO/N=C(\C(=O)N[C@@H]1C(=O)N2C(C(=O)O)=C(COC(C)=O)CS[C@H]12)c1csc(N)n1 [Cefotaxime] + CC(=O)NC[C@H]1CN(c2ccc(N3CCOCC3)c(F)c2)C(=O)O1 [Linezolid]
one replicate
Conditions | fitness
B. subtilis 168 [1], first compound 0.00775 µg/mL, partner 0.125 µg/mL | 0.688
B. subtilis 168 [1], first compound 0.00775 µg/mL, partner 0.25 µg/mL | 0.141
B. subtilis 168 [1], first compound 0.00775 µg/mL, partner 0.5 µg/mL | 0.0663
B. subtilis 168 [1], first compound 0.0155 µg/mL, partner 0.125 µg/mL | 0.495
B. subtilis 168 [1], first compound 0.0155 µg/mL, partner 0.25 µg/mL | 0.0491
B. subtilis 168 [1], first compound 0.0155 µg/mL, partner 0.5 µg/mL | 0.0426
B. subtilis 168 [1], first compound 0.031 µg/mL, partner 0.125 µg/mL | 0.462
B. subtilis 168 [1], first compound 0.031 µg/mL, partner 0.25 µg/mL | 0.0621
B. subtilis 168 [1], first compound 0.031 µg/mL, partner 0.5 µg/mL | 0.0534
B. subtilis 168 [1], first compound 0.0625 µg/mL, partner 0.0625 µg/mL | 0.553
B. subtilis 168 [1], first compound 0.0625 µg/mL, partner 0.125 µg/mL | 0.327
B. subtilis 168 [1], first compound 0.0625 µg/mL, partner 0.25 µg/mL | 0.0561
B. subtilis 168 [1], first compound 0.125 µg/mL, partner 0.0625 µg/mL | 0.413
B. subtilis 168 [1], first compound 0.125 µg/mL, partner 0.125 µg/mL | 0.216
B. subtilis 168 [1], first compound 0.125 µg/mL, partner 0.25 µg/mL | 0.0505
B. subtilis 168 [1], first compound 0.25 µg/mL, partner 0.0625 µg/mL | 0.308
B. subtilis 168 [1], first compound 0.25 µg/mL, partner 0.125 µg/mL | 0.189
B. subtilis 168 [1], first compound 0.25 µg/mL, partner 0.25 µg/mL | 0.0533
S. aureus DSM 20231 [2], first compound 0.039 µg/mL, partner 1 µg/mL | 0.0567
S. aureus DSM 20231 [2], first compound 0.078 µg/mL, partner 1 µg/mL | 0.0664
S. aureus DSM 20231 [2], first compound 0.156 µg/mL, partner 1 µg/mL | 0.0626
S. aureus DSM 20231 [2], first compound 0.312 µg/mL, partner 0.125 µg/mL | 0.658
S. aureus DSM 20231 [2], first compound 0.312 µg/mL, partner 0.25 µg/mL | 0.545
S. aureus DSM 20231 [2], first compound 0.312 µg/mL, partner 0.5 µg/mL | 0.342

Conditions | fitness
B. subtilis 168 [1], first compound 0.5 µg/mL, partner 0.125 µg/mL | 0.298
B. subtilis 168 [1], first compound 0.5 µg/mL, partner 0.25 µg/mL | 0.0555
B. subtilis 168 [1], first compound 0.5 µg/mL, partner 0.5 µg/mL | 0.0506
B. subtilis 168 [1], first compound 1 µg/mL, partner 0.125 µg/mL | 0.218
B. subtilis 168 [1], first compound 1 µg/mL, partner 0.25 µg/mL | 0.0513
B. subtilis 168 [1], first compound 1 µg/mL, partner 0.5 µg/mL | 0.0306
B. subtilis 168 [1], first compound 2 µg/mL, partner 0.125 µg/mL | 0.114
B. subtilis 168 [1], first compound 2 µg/mL, partner 0.25 µg/mL | 0.0572
B. subtilis 168 [1], first compound 2 µg/mL, partner 0.5 µg/mL | 0.0482
S. aureus DSM 20231 [2], first compound 0.039 µg/mL, partner 0.125 µg/mL | 0.737
S. aureus DSM 20231 [2], first compound 0.039 µg/mL, partner 0.25 µg/mL | 0.537
S. aureus DSM 20231 [2], first compound 0.039 µg/mL, partner 0.5 µg/mL | 0.194
S. aureus DSM 20231 [2], first compound 0.078 µg/mL, partner 0.125 µg/mL | 0.689
S. aureus DSM 20231 [2], first compound 0.078 µg/mL, partner 0.25 µg/mL | 0.57
S. aureus DSM 20231 [2], first compound 0.078 µg/mL, partner 0.5 µg/mL | 0.277
S. aureus DSM 20231 [2], first compound 0.156 µg/mL, partner 0.125 µg/mL | 0.745
S. aureus DSM 20231 [2], first compound 0.156 µg/mL, partner 0.25 µg/mL | 0.584
S. aureus DSM 20231 [2], first compound 0.156 µg/mL, partner 0.5 µg/mL | 0.297
S. pneumoniae D39V [3], first compound 0.0018 µg/mL, partner 0.105 µg/mL | 0.913
S. pneumoniae D39V [3], first compound 0.0018 µg/mL, partner 0.2 µg/mL | 0.642
S. pneumoniae D39V [3], first compound 0.0018 µg/mL, partner 0.21 µg/mL | 0.807
S. pneumoniae D39V [3], first compound 0.0018 µg/mL, partner 0.4 µg/mL | 0.633
S. pneumoniae D39V [3], first compound 0.0018 µg/mL, partner 0.42 µg/mL | 0.643
S. pneumoniae D39V [3], first compound 0.0018 µg/mL, partner 0.8 µg/mL | 0.238
S. pneumoniae D39V [3], first compound 0.0035 µg/mL, partner 0.105 µg/mL | 0.905
S. pneumoniae D39V [3], first compound 0.0035 µg/mL, partner 0.2 µg/mL | 0.604
S. pneumoniae D39V [3], first compound 0.0035 µg/mL, partner 0.21 µg/mL | 0.808
S. pneumoniae D39V [3], first compound 0.0035 µg/mL, partner 0.4 µg/mL | 0.615
S. pneumoniae D39V [3], first compound 0.0035 µg/mL, partner 0.42 µg/mL | 0.666
S. pneumoniae D39V [3], first compound 0.0035 µg/mL, partner 0.8 µg/mL | 0.217
S. pneumoniae D39V [3], first compound 0.007 µg/mL, partner 0.105 µg/mL | 0.797
S. pneumoniae D39V [3], first compound 0.007 µg/mL, partner 0.2 µg/mL | 0.597
S. pneumoniae D39V [3], first compound 0.007 µg/mL, partner 0.21 µg/mL | 0.693
S. pneumoniae D39V [3], first compound 0.007 µg/mL, partner 0.4 µg/mL | 0.58
S. pneumoniae D39V [3], first compound 0.007 µg/mL, partner 0.42 µg/mL | 0.445
S. pneumoniae D39V [3], first compound 0.007 µg/mL, partner 0.8 µg/mL | 0.173

Conditions | Bliss interaction score
B. subtilis 168 [4] | 0.0544
S. aureus DSM 20231 [5] | 0.0531
S. aureus Newman | -0.0569
S. pneumoniae D39V [6] | 0.157
